Assay results as given in ChEMBL document CHEMBL1133914, “Conformationally restricted indolopiperidine derivatives as potent CCR2B receptor antagonists” (Bioorg Med Chem Lett, 2001).
“And” between values parts separate entries of the source, which are not always exact repeats. Equal values may be shown once. The source made the active and inactive calls. The calls are words filed in the database; no cut-off is given here.

Experiments:
[1] = molecular target: T1, 5-hydroxytryptamine receptor 1A (Homo sapiens, UniProt P08908); test: Binding affinity for 5-hydroxytryptamine 1A receptor was determined
T1 sequence (P08908 whole entry): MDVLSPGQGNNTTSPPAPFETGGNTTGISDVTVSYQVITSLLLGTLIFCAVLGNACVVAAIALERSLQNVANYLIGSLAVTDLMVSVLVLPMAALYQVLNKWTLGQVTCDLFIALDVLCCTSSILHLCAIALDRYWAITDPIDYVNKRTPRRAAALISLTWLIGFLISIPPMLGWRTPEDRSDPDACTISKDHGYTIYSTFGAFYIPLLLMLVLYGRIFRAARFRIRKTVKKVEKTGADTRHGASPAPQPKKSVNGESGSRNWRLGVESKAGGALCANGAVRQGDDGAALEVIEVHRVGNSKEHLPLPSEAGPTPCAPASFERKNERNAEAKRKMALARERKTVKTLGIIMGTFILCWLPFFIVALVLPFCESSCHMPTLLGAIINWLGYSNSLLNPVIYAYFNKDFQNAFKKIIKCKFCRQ

[2] = molecular target: T2, 5-hydroxytryptamine receptor 7 (Homo sapiens, UniProt P34969); test: Binding affinity for 5-hydroxytryptamine 7 receptor was determined
[3] = molecular target: T3, 5-hydroxytryptamine receptor 1F (Homo sapiens, UniProt P30939); test: Binding affinity for 5-hydroxytryptamine 1F receptor was determined
T3 sequence (P30939 whole entry): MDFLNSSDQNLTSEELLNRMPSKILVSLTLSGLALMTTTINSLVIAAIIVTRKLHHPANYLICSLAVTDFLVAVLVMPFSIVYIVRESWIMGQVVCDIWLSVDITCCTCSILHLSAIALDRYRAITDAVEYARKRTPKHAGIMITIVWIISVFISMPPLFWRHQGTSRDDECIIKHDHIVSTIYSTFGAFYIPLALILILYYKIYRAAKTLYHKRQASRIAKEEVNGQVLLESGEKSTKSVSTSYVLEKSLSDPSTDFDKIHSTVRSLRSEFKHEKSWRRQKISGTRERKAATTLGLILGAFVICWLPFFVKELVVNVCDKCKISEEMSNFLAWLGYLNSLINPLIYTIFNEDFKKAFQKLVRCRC

[4] = molecular target: T4, 5-hydroxytryptamine receptor 2B (Homo sapiens, UniProt P41595); test: Binding affinity for 5-hydroxytryptamine 2B receptor was determined
[5] = molecular target: T5, 5-hydroxytryptamine receptor 1B (Homo sapiens, UniProt P28222); test: Binding affinity for 5-hydroxytryptamine 1B receptor was determined
[6] = molecular target: T6, 5-hydroxytryptamine receptor 1E (Homo sapiens, UniProt P28566); test: Binding affinity for 5-hydroxytryptamine 1E receptor was determined
[7] = molecular target: T7, 5-hydroxytryptamine receptor 2C (Homo sapiens, UniProt P28335); test: Binding affinity for 5-hydroxytryptamine 2C receptor was determined
T7 sequence (P28335 whole entry): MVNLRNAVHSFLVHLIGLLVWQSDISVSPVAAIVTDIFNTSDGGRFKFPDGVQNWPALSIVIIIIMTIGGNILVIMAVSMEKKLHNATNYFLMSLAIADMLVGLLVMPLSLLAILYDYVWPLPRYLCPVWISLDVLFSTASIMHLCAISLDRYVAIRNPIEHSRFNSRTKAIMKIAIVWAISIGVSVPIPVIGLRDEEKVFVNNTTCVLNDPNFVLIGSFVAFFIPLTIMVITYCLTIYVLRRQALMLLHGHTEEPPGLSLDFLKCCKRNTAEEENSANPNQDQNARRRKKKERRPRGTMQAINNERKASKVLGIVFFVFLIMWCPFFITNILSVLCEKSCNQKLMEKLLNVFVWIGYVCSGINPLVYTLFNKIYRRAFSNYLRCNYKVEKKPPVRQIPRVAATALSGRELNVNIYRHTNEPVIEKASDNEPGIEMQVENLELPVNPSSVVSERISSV

[8] = molecular target: T8, 5-hydroxytryptamine receptor 6 (Homo sapiens, UniProt P50406); test: Binding affinity for 5-hydroxytryptamine 6 receptor was determined
[9] = molecular target: T9, 5-hydroxytryptamine receptor 2A (Homo sapiens, UniProt P28223); test: Binding affinity for 5-hydroxytryptamine 2A receptor was determined
[10] = molecular target: T10, D(3) dopamine receptor (Homo sapiens, UniProt P35462); test: Binding affinity for Dopamine receptor D3 was determined
[11] = molecular target: T11, D(2) dopamine receptor (Homo sapiens, UniProt P14416); test: Binding affinity for Dopamine receptor D2 was determined
[12] = molecular target: T9, 5-hydroxytryptamine receptor 2A; test: Binding affinity relative to indolopiperidine (compound 1) for 5-hydroxytryptamine 2A receptor was determined
[13] = molecular target: T11, D(2) dopamine receptor; test: (§1) Binding affinity relative to indolopiperidine (compound 1) for Dopamine receptor D2 was determined
[14] = molecular target: T10, D(3) dopamine receptor; test: (§2) Binding affinity relative to indolopiperidine (compound 1) for Dopamine receptor D3 was determined
[15] = molecular target: T12, 5-hydroxytryptamine receptor 1A (Homo sapiens) (UniProt P08908); test: Binding affinity relative to indolopiperidine (compound 1) for 5-hydroxytryptamine 1A receptor was determined
T12 sequence (whole entry): T1 sequence (P08908 whole entry)

[16] = molecular target: T13, 5-hydroxytryptamine receptor 1F (Homo sapiens) (UniProt P30939); test: Binding affinity relative to indolopiperidine (compound 1) for 5-hydroxytryptamine 1F receptor was determined
T13 sequence (whole entry): T3 sequence (P30939 whole entry)

[17] = molecular target: T2, 5-hydroxytryptamine receptor 7; test: (§3) Binding affinity relative to indolopiperidine (compound 1) for 5-hydroxytryptamine 7 receptor was determined
[18] = molecular target: T8, 5-hydroxytryptamine receptor 6; test: Binding affinity relative to indolopiperidine (compound 1) for 5-hydroxytryptamine 6 receptor was determined
[19] = molecular target: T14, C-C chemokine receptor type 2 (Homo sapiens, UniProt P41597)
Target sequence in this assay (P41597 whole entry, looked up): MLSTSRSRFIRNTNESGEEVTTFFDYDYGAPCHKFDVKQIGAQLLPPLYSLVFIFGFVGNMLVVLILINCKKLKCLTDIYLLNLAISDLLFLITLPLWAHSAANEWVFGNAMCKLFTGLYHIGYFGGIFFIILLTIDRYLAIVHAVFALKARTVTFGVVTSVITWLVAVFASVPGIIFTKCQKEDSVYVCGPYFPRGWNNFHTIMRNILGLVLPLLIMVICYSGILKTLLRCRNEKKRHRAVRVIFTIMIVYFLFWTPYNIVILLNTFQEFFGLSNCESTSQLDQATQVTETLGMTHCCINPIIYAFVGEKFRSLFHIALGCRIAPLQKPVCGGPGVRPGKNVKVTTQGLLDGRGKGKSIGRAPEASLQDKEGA

[20] = molecular target: T4, 5-hydroxytryptamine receptor 2B; test: Binding affinity relative to indolopiperidine (compound 1) for 5-hydroxytryptamine 2B receptor was determined
[21] = molecular target: T5, 5-hydroxytryptamine receptor 1B; test: Binding affinity relative to indolopiperidine (compound 1) for 5-hydroxytryptamine 1B receptor was determined
[22] = molecular target: T15, 5-hydroxytryptamine receptor 2C (Homo sapiens) (UniProt P28335); test: Binding affinity relative to indolopiperidine (compound 1) for 5-hydroxytryptamine 2C receptor was determined
T15 sequence (whole entry): T7 sequence (P28335 whole entry)

[23] = molecular target: T6, 5-hydroxytryptamine receptor 1E; test: Binding affinity relative to indolopiperidine (compound 1) for 5-hydroxytryptamine 1E receptor was determined
[24] = molecular target: T14, C-C chemokine receptor type 2; test: Inhibition of [125I]MCP-1 binding to the cloned C-C chemokine receptor type 2B expressed in CHO cells; IA means inactive; assay type: cell-based
Target sequence in this assay (P41597 whole entry, looked up): as above

[25] = molecular target: T14, C-C chemokine receptor type 2; test: Binding affinity relative to indolopiperidine (compound 1) for C-C chemokine receptor type 2B was determined
Target sequence in this assay (P41597 whole entry, looked up): as above

[26] = molecular target: T14, C-C chemokine receptor type 2; test: (§4) Inhibition of [125I]MCP-1 binding to the cloned C-C chemokine receptor type 2B expressed in CHO cells; assay type: cell-based
Target sequence in this assay (P41597 whole entry): as the sequence (P41597 whole entry, looked up) above

[27] = molecular target: T9, 5-hydroxytryptamine receptor 2A; test: Binding affinity relative to indolopiperidine (compound 1)for 5-hydroxytryptamine 2A receptor was determined
[28] = molecular target: T14, C-C chemokine receptor type 2; test: as §4; assay type: cell-based; remark: listed apart in the source
Target sequence in this assay (P41597 whole entry): as the sequence (P41597 whole entry, looked up) above

[29] = molecular target: T14, C-C chemokine receptor type 2; test: as §4; assay type: cell-based; remark: listed apart in the source
Target sequence in this assay (P41597 whole entry): as the sequence (P41597 whole entry, looked up) above

[30] = molecular target: T2, 5-hydroxytryptamine receptor 7; test: as §3; remark: listed apart in the source
[31] = molecular target: T14, C-C chemokine receptor type 2; test: Binding affinity relative to indolopiperidine (compound 1) forC-C chemokine receptor type 2B was determined
Target sequence in this assay (P41597 whole entry, looked up): as above

[32] = molecular target: T11, D(2) dopamine receptor; test: as §1; remark: listed apart in the source
[33] = molecular target: T10, D(3) dopamine receptor; test: as §2; remark: listed apart in the source
[34] = molecular target: T14, C-C chemokine receptor type 2; test: Binding affinity for C-C chemokine receptor type 2B was determined
Target sequence in this assay (P41597 whole entry): as the sequence (P41597 whole entry, looked up) above

[35] = molecular target: T14, C-C chemokine receptor type 2; test: Inhibition of [125I]MCP-1 binding to the cloned C-C chemokine receptor type 2B expressed in CHO cells; IA mean inactive; assay type: cell-based
Target sequence in this assay (P41597 whole entry, looked up): as above

T10 sequence (P35462 whole entry): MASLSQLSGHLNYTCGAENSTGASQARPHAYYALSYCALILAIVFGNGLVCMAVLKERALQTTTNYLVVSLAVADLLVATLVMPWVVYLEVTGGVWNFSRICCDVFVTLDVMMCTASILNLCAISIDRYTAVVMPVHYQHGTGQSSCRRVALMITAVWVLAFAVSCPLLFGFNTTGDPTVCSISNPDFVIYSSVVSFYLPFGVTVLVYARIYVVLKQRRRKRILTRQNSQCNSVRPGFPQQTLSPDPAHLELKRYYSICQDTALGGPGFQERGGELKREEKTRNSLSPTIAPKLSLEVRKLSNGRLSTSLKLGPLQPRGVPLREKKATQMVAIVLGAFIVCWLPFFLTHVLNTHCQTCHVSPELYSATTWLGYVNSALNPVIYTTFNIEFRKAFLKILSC
T8 sequence (P50406 whole entry): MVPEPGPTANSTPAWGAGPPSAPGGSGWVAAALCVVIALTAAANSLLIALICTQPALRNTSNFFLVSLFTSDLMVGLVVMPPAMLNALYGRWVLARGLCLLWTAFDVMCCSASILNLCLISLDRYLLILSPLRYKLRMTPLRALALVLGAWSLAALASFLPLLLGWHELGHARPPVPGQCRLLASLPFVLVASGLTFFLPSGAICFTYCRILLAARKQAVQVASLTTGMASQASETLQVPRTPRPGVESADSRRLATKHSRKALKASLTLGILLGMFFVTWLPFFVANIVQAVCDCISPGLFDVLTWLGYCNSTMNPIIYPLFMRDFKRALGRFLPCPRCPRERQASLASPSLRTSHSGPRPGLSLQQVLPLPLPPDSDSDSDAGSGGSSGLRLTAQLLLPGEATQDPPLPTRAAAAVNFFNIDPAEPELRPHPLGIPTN
T4 sequence (P41595 whole entry): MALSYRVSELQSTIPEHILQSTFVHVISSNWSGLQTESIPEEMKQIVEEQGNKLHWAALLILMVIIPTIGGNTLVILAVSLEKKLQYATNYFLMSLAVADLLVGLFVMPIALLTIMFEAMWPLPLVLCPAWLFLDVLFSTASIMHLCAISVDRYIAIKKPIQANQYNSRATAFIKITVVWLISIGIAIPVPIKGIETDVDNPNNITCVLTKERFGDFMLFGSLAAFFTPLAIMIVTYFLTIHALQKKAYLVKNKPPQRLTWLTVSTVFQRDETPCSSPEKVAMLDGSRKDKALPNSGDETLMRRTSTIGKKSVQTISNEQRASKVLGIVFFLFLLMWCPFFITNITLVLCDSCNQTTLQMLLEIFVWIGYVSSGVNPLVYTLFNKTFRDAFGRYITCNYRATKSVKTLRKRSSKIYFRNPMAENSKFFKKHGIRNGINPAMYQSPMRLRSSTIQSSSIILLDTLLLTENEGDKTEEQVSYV
T11 sequence (P14416 whole entry): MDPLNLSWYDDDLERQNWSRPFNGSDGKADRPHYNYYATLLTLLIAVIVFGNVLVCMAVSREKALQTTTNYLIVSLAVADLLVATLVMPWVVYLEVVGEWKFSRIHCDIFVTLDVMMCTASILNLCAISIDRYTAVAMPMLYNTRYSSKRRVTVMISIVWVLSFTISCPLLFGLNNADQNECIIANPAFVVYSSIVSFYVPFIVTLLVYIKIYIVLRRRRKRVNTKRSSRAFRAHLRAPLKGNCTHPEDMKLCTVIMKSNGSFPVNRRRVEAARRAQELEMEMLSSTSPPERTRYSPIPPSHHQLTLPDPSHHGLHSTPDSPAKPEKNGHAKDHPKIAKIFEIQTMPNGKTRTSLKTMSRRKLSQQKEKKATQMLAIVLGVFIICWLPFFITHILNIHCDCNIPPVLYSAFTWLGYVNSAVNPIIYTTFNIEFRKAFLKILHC
T6 sequence (P28566 whole entry): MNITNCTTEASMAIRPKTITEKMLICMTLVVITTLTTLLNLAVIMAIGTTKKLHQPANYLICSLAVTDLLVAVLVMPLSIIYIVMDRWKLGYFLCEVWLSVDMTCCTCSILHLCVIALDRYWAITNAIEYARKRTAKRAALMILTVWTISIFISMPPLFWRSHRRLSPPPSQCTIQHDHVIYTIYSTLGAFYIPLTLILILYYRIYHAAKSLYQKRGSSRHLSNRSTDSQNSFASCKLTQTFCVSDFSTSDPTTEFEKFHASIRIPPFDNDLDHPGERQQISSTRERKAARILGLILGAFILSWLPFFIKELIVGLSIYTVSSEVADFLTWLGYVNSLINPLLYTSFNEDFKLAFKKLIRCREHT
T9 sequence (P28223 whole entry): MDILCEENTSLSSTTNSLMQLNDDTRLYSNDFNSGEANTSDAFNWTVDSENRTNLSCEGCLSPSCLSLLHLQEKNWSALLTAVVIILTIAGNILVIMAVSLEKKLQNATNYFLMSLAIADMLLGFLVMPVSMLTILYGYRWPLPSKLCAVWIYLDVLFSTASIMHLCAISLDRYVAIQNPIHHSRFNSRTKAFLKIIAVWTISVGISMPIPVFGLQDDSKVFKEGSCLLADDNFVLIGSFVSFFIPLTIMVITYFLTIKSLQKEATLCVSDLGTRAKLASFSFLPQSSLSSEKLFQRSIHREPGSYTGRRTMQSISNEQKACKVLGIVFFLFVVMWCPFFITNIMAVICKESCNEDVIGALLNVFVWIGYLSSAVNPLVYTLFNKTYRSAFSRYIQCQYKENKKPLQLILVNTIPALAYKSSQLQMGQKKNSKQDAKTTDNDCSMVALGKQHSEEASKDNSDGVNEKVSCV
T5 sequence (P28222 whole entry): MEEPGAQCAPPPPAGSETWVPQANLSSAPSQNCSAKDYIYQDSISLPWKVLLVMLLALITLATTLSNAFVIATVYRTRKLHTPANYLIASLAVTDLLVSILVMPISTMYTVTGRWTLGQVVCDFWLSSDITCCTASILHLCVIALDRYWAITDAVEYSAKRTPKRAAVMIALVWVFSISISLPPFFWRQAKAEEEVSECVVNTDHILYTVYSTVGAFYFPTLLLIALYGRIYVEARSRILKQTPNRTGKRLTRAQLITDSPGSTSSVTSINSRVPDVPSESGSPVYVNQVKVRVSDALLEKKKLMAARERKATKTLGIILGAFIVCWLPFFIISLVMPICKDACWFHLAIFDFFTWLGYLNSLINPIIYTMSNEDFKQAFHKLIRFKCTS
T2 sequence (P34969 whole entry): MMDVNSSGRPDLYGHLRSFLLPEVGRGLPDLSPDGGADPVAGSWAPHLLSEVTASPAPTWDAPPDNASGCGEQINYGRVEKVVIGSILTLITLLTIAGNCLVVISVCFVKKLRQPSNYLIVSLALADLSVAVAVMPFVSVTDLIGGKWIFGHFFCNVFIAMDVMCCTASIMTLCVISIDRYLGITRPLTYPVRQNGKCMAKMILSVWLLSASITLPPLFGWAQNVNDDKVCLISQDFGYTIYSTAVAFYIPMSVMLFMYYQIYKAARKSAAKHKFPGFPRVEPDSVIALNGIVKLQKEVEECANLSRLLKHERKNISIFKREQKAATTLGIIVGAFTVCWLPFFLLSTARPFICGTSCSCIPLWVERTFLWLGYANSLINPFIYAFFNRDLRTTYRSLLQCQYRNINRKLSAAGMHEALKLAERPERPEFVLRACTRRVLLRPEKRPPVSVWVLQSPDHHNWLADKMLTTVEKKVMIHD

O=C(/C=C/c1ccc(Cl)c(Cl)c1)NCCCCCN1CCC(c2c[nH]c3ccc(O)cc23)CC1
Ki [1]: 100 nM | Ki [2]: 63.1 nM | Ki [3]: 3.16 nM | Ki [4]: 25.1 nM | Ki [5]: 12.6 nM | Ki [6]: 6.31 nM | Ki [7]: 79.4 nM | Ki [8]: 79.4 nM | Ki [9]: 20 nM | Ki [10]: 7.94 nM | Ki [11]: 15.8 nM

O=C(/C=C/c1ccc(Cl)c(Cl)c1)NCCCCCN1[C@@H]2CC[C@H]1CC(c1c[nH]c3ccc(O)cc13)C2 (stereo in doubt) [listing 1 of 2 here]
Delta pKi [12]: -0.9 | Delta pKi [13]: -1.7 | Delta pKi [14]: -1.4 | Delta pKi [15]: -1.1 | Delta pKi [16]: -2.7 | Delta pKi [17]: -1.5 | Delta pKi [18]: -0.9 | Delta pKi [19]: -0.7 | Delta pKi [20]: -1.5 | Delta pKi [21]: -1.6 | Delta pKi [22]: -0.5 | Delta pKi [23]: -3.2

O=C(/C=C/c1ccc(Cl)c(Cl)c1)Nc1ccc(CN2CCC(c3c[nH]c4ccccc34)CC2)cc1
Log Ki [24]: inactive

O=C(/C=C/c1ccc(Cl)c(Cl)c1)N[C@H]1CC[C@@H](CN2CCC(c3c[nH]c4ccc(O)cc34)CC2)CC1
Delta pKi [13]: -0.8 | Delta pKi [14]: -0.9 | Delta pKi [25]: -0.2 | Delta pKi [15]: -0.7 | Delta pKi [16]: -2.6 | Delta pKi [17]: -0.4 | Ki [26]: 79 nM and 126 nM | Delta pKi [18]: -0.9 | Delta pKi [20]: -0.5 | Delta pKi [21]: -1.2 | Delta pKi [27]: -0.1 | Ki [28]: 79.4 nM | Delta pKi [22]: -0.4 | Delta pKi [23]: -1.4

O=C(/C=C/c1ccc(Cl)c(Cl)c1)NCCCCCN1[C@@H]2CC[C@H]1CC(c1c[nH]c3ccc(O)cc13)C2 (stereo in doubt) [listing 2 of 2 here]
Ki [29]: 251 nM | Ki [28]: 251 nM

O=C(/C=C/c1ccc(Cl)c(Cl)c1)N[C@H]1CC[C@@H](CN2[C@@H]3CC[C@H]2C[C@H](c2c[nH]c4ccc(O)cc24)C3)CC1
Delta pKi [12]: -3 | Delta pKi [13]: -1.9 | Ki [1]: 7940 nM | Ki [3]: > 3160 nM | Ki [4]: 501 nM | Delta pKi [14]: -2.5 | Log Ki [30]: < -6.1 | Delta pKi [15]: -1.9 | Ki [5]: 1000 nM | Ki [6]: > 6310 nM | Delta pKi [16]: > -3 | Delta pKi [31]: 0.1 | Ki [32]: 1260 nM | Delta pKi [17]: > -1.9 | Ki [33]: 2510 nM | Delta pKi [18]: -1.4 | Ki [7]: > 3160 nM | Ki [34]: 40 nM | Ki [8]: 2000 nM | Delta pKi [20]: -1.3 | Delta pKi [21]: -1.9 | Ki [28]: 39.8 nM | Delta pKi [22]: > -1.6 | Ki [9]: > 20000 nM | Delta pKi [23]: > -3.2

O=C(/C=C/c1ccc(Cl)c(Cl)c1)NCCCCCN1[C@@H]2CC[C@H]1CC(c1c[nH]c3ccc(O)cc13)C2 (single isomer, unassigned)
Ki [26]: 630 nM | Ki [28]: 631 nM

O=C(/C=C/c1ccc(Cl)c(Cl)c1)N[C@H]1CC[C@@H](CN2CCC(c3c[nH]c4ccccc34)CC2)CC1
Ki [29]: 126 nM

O=C(/C=C/c1ccc(Cl)c(Cl)c1)NCc1cccc(CN2CCC(c3c[nH]c4ccccc34)CC2)c1
Log Ki [35]: inactive
